Data published in PubChem BioAssay (NCI).
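Following 48 hours of exposure in 96-well plates, responses at five concentrations were used to interpolate endpoints linearly. At the GI50, growth is halved. The concentration for full growth arrest is given as TGI.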

Experiments:
Test in all cases: DTP human tumour cell line panel, 48 h
[1] = system: MALME-3M melanoma
[2] = system: 786-0 renal
[3] = system: SNB-19 CNS
[4] = system: RPMI-8226 leukemia
[5] = system: UACC-62 melanoma
[6] = system: HT29 colon
[7] = system: SR leukemia
[8] = system: HCT-116 colon
[9] = system: BT-549 breast
[10] = system: PC-3 prostate

SMILES: COC(=O)[C@@]1(O)CC(C)C=C1C=O (stereo partly drawn)
- TGI [1]: > 100 µM
- TGI [2]: > 100 µM
- TGI [3]: > 100 µM
- TGI [4]: > 100 µM
- TGI [5]: > 100 µM
- TGI [6]: > 100 µM
- TGI [7]: > 100 µM
- TGI [8]: 38.4 µM

SMILES: COc1ccc2c3c(c4ccccc4cc13)C(=O)N(CCN(C)CCN)C2=O
- GI50 [1]: 0.0799 µM
- TGI [1]: 1.27 µM
- GI50 [2]: 0.0388 µM
- TGI [2]: 0.7 µM
- GI50 [3]: 0.0692 µM
- TGI [3]: 1.27 µM
- GI50 [9]: 0.329 µM
- TGI [9]: 1.84 µM
- GI50 [4]: 0.166 µM
- TGI [4]: 0.75 µM
- GI50 [5]: 0.077 µM
- TGI [5]: 1.56 µM
- GI50 [10]: 0.338 µM
- TGI [10]: 1.93 µM
- GI50 [6]: 0.114 µM
- TGI [6]: 1.13 µM
- GI50 [8]: 0.0312 µM
- TGI [8]: 1.17 µM

SMILES: CC1(C)CCC[C@]2(C)c3cc(O)ccc3CC[C@@H]12
- GI50 [2]: 27.3 µM
- TGI [2]: 79.7 µM
- GI50 [3]: 17 µM
- TGI [3]: 33.9 µM
- GI50 [9]: 19.4 µM
- TGI [9]: 33.5 µM
- GI50 [4]: 12.3 µM
- TGI [4]: 30.4 µM
- GI50 [5]: 13.1 µM
- TGI [5]: 25.8 µM
- GI50 [10]: 15.8 µM
- TGI [10]: 30.2 µM
- GI50 [6]: 23.2 µM
- TGI [6]: 43.7 µM
- GI50 [7]: 8.72 µM
- TGI [7]: > 100 µM
- GI50 [8]: 42.2 µM
- TGI [8]: > 100 µM

SMILES: CCCCCCCCC(O)C#CC(N)=O (stereo not drawn)
- TGI [1]: 31.8 µM
- TGI [2]: 25.3 µM
- TGI [3]: 26.3 µM
- TGI [4]: 41.1 µM
- TGI [5]: 19.9 µM
- TGI [6]: 24.5 µM
- TGI [7]: 52.9 µM
- TGI [8]: 16.6 µM

SMILES: Nc1nc2ccc3[nH]ncc3c2c2c1CCCC2
- GI50 [1]: 2.36 µM
- TGI [1]: 5.13 µM
- GI50 [2]: 2.15 µM
- TGI [2]: 9.85 µM
- GI50 [3]: 2.64 µM
- TGI [3]: 10.8 µM
- GI50 [9]: 1.38 µM
- TGI [9]: 3.34 µM
- GI50 [5]: 1.43 µM
- TGI [5]: 3.47 µM
- GI50 [10]: 2.33 µM
- TGI [10]: 10.1 µM
- GI50 [6]: 1.88 µM
- TGI [6]: 11.8 µM
- GI50 [7]: 0.467 µM
- GI50 [8]: 1 µM
- TGI [8]: 5.86 µM

SMILES: C[C@]1(C(=O)O)N[C@H](C(=O)O)CS1
- GI50 [1]: > 1000 µM
- TGI [1]: > 1000 µM
- GI50 [2]: > 1000 µM
- TGI [2]: > 1000 µM
- GI50 [3]: > 1000 µM
- TGI [3]: > 1000 µM
- GI50 [4]: > 1000 µM
- TGI [4]: > 1000 µM
- GI50 [5]: > 1000 µM
- TGI [5]: > 1000 µM
- GI50 [10]: > 1000 µM
- TGI [10]: > 1000 µM
- GI50 [6]: > 1000 µM
- TGI [6]: > 1000 µM
- GI50 [8]: > 1000 µM
- TGI [8]: > 1000 µM

SMILES: COc1cc(C=O)c(-c2cc3c(cc2C2(C)OCCS2)OCO3)c(OC)c1OC (stereo not drawn)
- TGI [1]: 90.8 µM
- TGI [2]: 23.6 µM
- TGI [3]: 168 µM
- TGI [4]: > 160 µM
- TGI [5]: 61.4 µM
- TGI [6]: 20.7 µM
- TGI [7]: 50 µM
- TGI [8]: 28.2 µM

SMILES: COc1ccc2c(c1)CCc1[nH]nc(-c3cc(OC)c(OC)c(OC)c3)c1-2
- GI50 [1]: < 0.01 µM
- TGI [1]: 33.9 µM
- GI50 [2]: < 0.01 µM
- TGI [2]: 11.5 µM
- GI50 [3]: < 0.01 µM
- TGI [3]: 46.2 µM
- GI50 [9]: < 0.01 µM
- TGI [9]: 10.6 µM
- GI50 [5]: < 0.01 µM
- TGI [5]: 13 µM
- GI50 [10]: < 0.01 µM
- TGI [10]: 17.8 µM
- GI50 [6]: < 0.01 µM
- TGI [6]: 10.1 µM
- GI50 [7]: < 0.01 µM
- TGI [7]: 22.9 µM
- GI50 [8]: < 0.01 µM
- TGI [8]: 1.16 µM

SMILES: COc1cc(-c2csc(NC(=O)Nc3cc(C(F)(F)F)cc(C(F)(F)F)c3)n2)cc(OC)c1OC
- GI50 [1]: 2.15 µM
- TGI [1]: 7.32 µM
- GI50 [2]: 3.17 µM
- TGI [2]: 11.8 µM
- GI50 [3]: 3.56 µM
- TGI [3]: 15.7 µM
- GI50 [9]: 2.38 µM
- TGI [9]: 7.84 µM
- GI50 [4]: 0.967 µM
- TGI [4]: 3.76 µM
- GI50 [5]: 1.59 µM
- TGI [5]: 4.53 µM
- GI50 [10]: 1 µM
- TGI [10]: 7.55 µM
- GI50 [6]: 2.67 µM
- TGI [6]: 11.2 µM
- GI50 [8]: 2.55 µM
- TGI [8]: 10.2 µM

SMILES: O=C(Nc1ccc2[nH]c(C(=O)N3CC(CCl)c4c3cc([N+](=O)[O-])c3ccccc43)cc2c1)c1cc2ccccc2o1 (stereo not drawn)
- GI50 [1]: > 1100 µM
- TGI [1]: > 1100 µM
- GI50 [2]: > 1100 µM
- TGI [2]: > 1100 µM
- GI50 [3]: > 1100 µM
- TGI [3]: > 1100 µM
- GI50 [9]: > 1100 µM
- TGI [9]: > 1100 µM
- GI50 [4]: > 1100 µM
- TGI [4]: > 1100 µM
- GI50 [5]: > 1100 µM
- TGI [5]: > 1100 µM
- GI50 [6]: > 1100 µM
- TGI [6]: > 1100 µM
- GI50 [7]: 35.2 µM
- TGI [7]: > 1100 µM
- GI50 [8]: > 1100 µM
- TGI [8]: > 1100 µM

SMILES: COc1cc([C@H]2c3cc4c(cc3[C@H](NCc3ccc([N+](=O)[O-])cc3)C3COC(=O)[C@H]32)OCO4)cc(OC)c1O (stereo partly drawn)
- TGI [1]: 17.3 µM
- TGI [2]: 2.78 µM
- TGI [3]: 21.4 µM
- TGI [4]: > 25.6 µM
- TGI [5]: 12.1 µM
- TGI [6]: 14.6 µM
- TGI [8]: > 86.1 µM

SMILES: O=C(NC12CC3CC(CC(C3)C1)C2)C(=O)c1c[nH]c2ccc([N+](=O)[O-])cc12
- TGI [1]: > 94.5 µM
- TGI [2]: 45.9 µM
- TGI [3]: > 30.3 µM
- TGI [4]: > 100 µM
- TGI [5]: > 77.1 µM
- TGI [6]: > 100 µM
- TGI [7]: > 100 µM
- TGI [8]: > 100 µM

SMILES: CCCCN=C(NC#N)N(Cc1ccccc1)Cc1ccccc1
- TGI [1]: > 100 µM
- TGI [2]: > 100 µM
- TGI [3]: > 100 µM
- TGI [4]: 40.8 µM
- TGI [5]: 34.8 µM
- TGI [6]: 28.7 µM
- TGI [8]: 39.5 µM

SMILES: Nc1nc(NC2C=C(CO)C(O)C2O)c([N+](=O)[O-])c(=O)[nH]1 (stereo not drawn)
- TGI [1]: > 100 µM
- TGI [2]: > 100 µM
- TGI [3]: > 100 µM
- TGI [5]: > 100 µM
- TGI [6]: > 100 µM
- TGI [7]: > 100 µM
- TGI [8]: > 100 µM

SMILES: COc1ccc(SC2c3ccc(C)cc3Oc3nc(N)c(C#N)c(N)c32)cc1 (stereo not drawn)
- GI50 [1]: 1.68 µM
- TGI [1]: 3.13 µM
- GI50 [2]: 1.65 µM
- TGI [2]: 3.01 µM
- GI50 [9]: 1.56 µM
- TGI [9]: 2.9 µM
- GI50 [4]: 2.47 µM
- TGI [4]: 6.56 µM
- GI50 [5]: 1.6 µM
- TGI [5]: 2.99 µM
- GI50 [10]: 1.6 µM
- TGI [10]: 3.11 µM
- GI50 [6]: 2.31 µM
- TGI [6]: 4.83 µM
- GI50 [8]: 1.82 µM
- TGI [8]: 3.37 µM

SMILES: O=c1cc(-c2ccccc2)[nH]c2c(Cl)cccc12
- TGI [1]: > 100 µM
- TGI [2]: > 100 µM
- TGI [3]: > 100 µM
- TGI [4]: > 100 µM
- TGI [5]: 67.3 µM
- TGI [6]: > 100 µM
- TGI [7]: > 100 µM
- TGI [8]: > 100 µM

SMILES: CCC(=O)C(C)C(=O)C(=O)C(=O)OC (stereo not drawn)
- TGI [1]: > 100 µM
- TGI [2]: > 100 µM
- TGI [3]: > 100 µM
- TGI [4]: > 100 µM
- TGI [5]: > 100 µM
- TGI [6]: > 100 µM
- TGI [7]: > 100 µM
- TGI [8]: > 100 µM
